From patent US20200123146A1, “HETEROCYCLIC INTEGRIN AGONISTS” (GB006, Inc., priority 2016, published 2020)
Blank lines part the entries; values can stand above or below the compound they belong to.

How the values were obtained:
[1] = target: T1, integrin CD11b/CD18 (K562 CD11b/CD18 cells) (Homo sapiens, UniProt P05107+P11215); experiment: K562 cell adhesion assay with immobilized ligands; format: cell-based; details: cell-based adhesion assay, K562 cells, 30 min at 37° C.
T1 construct: host or cells: K562 cells stably transfected with wild-type CD11b/CD18
Text: (§1) Cell Lines. K562 cells (ATCC) stably transfected with wild-type integrin CD11b/CD18 (K562 CD11b/CD18) have been described previously (Park, etal. J Biomol Screen, 2007. 12(3): 406; Gupta, et al., Blood, 2007. 109(8): 3513; incorporated herein by reference in their entirety). Mutant CD11bE320A has been described previously (Alonso, et al. Curr Biol, 2002. 12(10): R340; incorporated herein by reference in its entirety). K562 cells stably transfected with mutant integrin CD11bE320A/CD18 (K562 E320A) were generated according to literature protocols (Park, supra; Gupta, supra). All cell lines were maintained in Iscove's Modified Dulbecco's Medium (IMDM) supplemented with 10% heat-inactivated fetal bovine serum, 50 IU/ml penicillin and streptomycin and 0.5 mg/ml G418.
(§2) K562 Cell Adhesion Assay. Cell adhesion assays with immobilized ligands were performed as previously described (Park, supra). Assays with all different K562 cell lines (K562, K562 CD11b/CD18 and K562 E320A) were performed in an identical fashion. Briefly, 384-well Highbind microtiter plates were coated with a 30 μL solution of ligand in Phosphate Buffered Saline, pH 7.4 containing 1 mM each of Ca^2+ and Mg^2+ ions (PBS^++) overnight at 4° C. Ligand Fg was coated at a concentration of 5-15 μg/mL and iC3b at 1-5 μg/mL. Heterodimer specific mAb IB4 was coated at 1-20 μg/mL. Subsequently, the non-specific sites in the wells were blocked by incubation with 1% non-fat milk in Tris Buffered Saline (TBS), pH 7.4, at room temperature for 1 h. Next, the wells were washed three times with TBS. K562 cells were suspended in the assay buffer (TBS containing 1 mM each of Ca^2+ and Mg^2+ ions (TBS^++)) and were transferred to the ligand-coated wells (30,000 cells/well). Stock solutions of the integrin agonists were prepared by dissolving the compounds in DMSO at a concentration of 2-10 mM. Final concentration of DMSO in the assay was approximately 1-2%. K562 cells were incubated in the presence of increasing concentration of integrin agonist for 30 min at 37° C. To dislodge non-adherent cells, the assay plates were gently inverted and kept in the inverted position for 30 min at room temperature. Cells remaining adherent were fixed using formaldehyde and were quantitated using imaging microscopy, as previously described (Park, supra).

[2] = target: T2, integrin CD11b/CD18 (K562 CD11b/CD18 cells) (Homo sapiens, UniProt P11215); experiment: K562 cell adhesion assay with immobilized ligands; format: cell-based; details: for activity level in adhesion assay: compared with the other compounds in the study
T2 construct: host or cells: K562 cells stably transfected with wild-type CD11b/CD18
Text: as §1, §2

[3] = Pharmacokinetic properties after PO/IV cassette dosing; format: in vivo, Balb/C mice; details: mouse, plasma; for Vd: read-out: Vdss; for bioavailability: head prints Rat, method Balb/C mice, PO 10 mg/kg, IV 1 mg/kg cassette dose, read-out: Rat F %; for AUC(0-t): PO 10 mg/kg and/or IV 1 mg/kg cassette dose
Experimental: Integrin agonists as described above were administered to Balb/C mice orally (PO; gavage; 10 mg/kg) and/or intravenously (IV; bolus through tail vein; 1 mg/kg) as a cassette dose with 2 to 3 compounds dosed at a time. A total of twelve mice between age 5-6 weeks with a body weight range of 24-28 g were used. The feeding regimen included 4 h fasting and the feed was provided 2 h after the dosage inoculation and water was provided ad libitum. The blood collection schedule for PO was at 0.25, 0.5, 1, 2, 4, 8,10 and 24 h, and for IV it was at 0.12, 0.25, 0.5, 1, 2, 4, 8 and 24 h post-dose administration under isoflurane anesthesia. For PO dosage, a suspension formulation in 0.2% Tween-80 and 99.8% methyl cellulose (0.5% in water) was prepared in milli-Q water; for IV dosage, a solution formulation in 5% DMSO, 5% Solutol:absolute alcohol (1:1, v/v), and 90% normal saline was prepared.
Dose preparation: For PO dosage, each integrin agonist was wetted with Tween-80 and triturated in a mortar and pestle, and then 0.5% of methyl cellulose was slowly added to make up the final volume for administration. For IV dosage, each integrin agonist was dissolved in DMSO and Solutol:absolute ethanol (1:1, v/v), vortexed, and combined with normal saline.
Methodology for preparation of CC/QC samples: 5 μL of working stock solution was spiked in to 45 μL of blank plasma to obtain the desired concentration in pre-labeled vials. To it was added 250 μL of 100% acetonitrile containing internal standard (tolbutamide: 100 ng/mL) and the sample was vortexed for 2 min followed by centrifugation for 5 min at 20,817×g at 4° C. Supernatant was separated and 5 μL of same was injected on LC-MS/MS.
Data Analysis: Na2EDTA plasma samples were analyzed using a fit-for-purpose LC-MS/MS method.

[4] = system: CT26 cells; experiment: Syngeneic colon cancer mouse model using CT-26 cell line; format: in vivo, BALB/c mice; details: Day 21, female Balb/C, 10 mg/kg PO BID
Experimental: Compound 1, compound 8, and compound 12 were dosed at 10 mg/kg BID oral daily for 21 days in a syngeneic colon cancer mouse model using CT-26 cell line. CT26 cells were injected subcutaneously into right flank of female BALB/c mice, aged 7-8 weeks, on Day 1. Tumors were grown for 11 days and dosing was begun and dosed daily for 21 days. Tumor volume/growth (TV=Length×Width 2/2) was measured two times a week. Body weight was measured twice weekly. At the end of study tumor tissue and serum was collected and preserved. Morbidity and Mortality was monitored during the course of study.

[5] = system: leukocytes; details: acute peritonitis in mice; cited from earlier work
[6] = upon vascular injury in rats; cited from earlier work
[7] = in vivo; cited from earlier work
[8] = in vivo; cited from earlier work; remark: listed apart in the source
[9] = mice; cited from earlier work
[10] = in vivo; cited from earlier work; remark: listed apart in the source
[11] = in vivo; cited from earlier work; remark: listed apart in the source
[12] = system: tumor; details: in vivo; cited from earlier work
[13] = Balb/C, IV 1 mg/kg and/or PO 10 mg/kg cassette dose

Compound: O=C(O)c1ccc(-c2ccc(/C=C3\SC(=S)N(Cc4ccc(F)cc4)C3=O)o2)cn1 [Compound 15, (Z)-5-(5-((3-(4-Fluorobenzyl)-4-oxo-2-thioxothiazolidin-5-ylidene)methyl)furan-2-yl)picolinic acid]
EC50 [1]: 100 to 250 nM
activity level in adhesion assay [2]: some of the highest activity levels

Compound: O=C(O)c1ccc(-c2ccc(/C=C3\OC(=S)N(Cc4ccc(F)cc4)C3=O)o2)cc1 [Compound 8, (Z)-4-(5-((3-(4-Fluorobenzyl)-4-oxo-2-thioxooxazolidin-5-ylidene)methyl)furan-2-yl)benzoic acid]
EC50 [1]: 100 to 250 nM
Tmax [3, 13]: 2 h
half-life [3, 13]: 3.09 h
Vd [3, 13]: 1.37 L/kg
bioavailability [3]: 8.82%
% Reduction in Tumor Volume [4]: 5.25%
% Reduction in Tumor Weight [4]: −3.08%

Compound: O=C(O)c1ccc(-c2ccc(/C=C3\SC(=S)N(Cc4ccccc4)C3=O)o2)cn1 [Compound 12, (Z)-5-(5-((3-benzyl-4-oxo-2-thioxothiazolidin-5-ylidene)methyl)furan-2-yl)picolinic acid]
EC50 [1]: 100 to 250 nM
activity level in adhesion assay [2]: some of the highest activity levels
Cmax [3, 13]: 55 ng/mL
Tmax [3, 13]: 0.5 h
half-life [3, 13]: 1.39 h
AUC(0-t) ([3]; Balb/C): 176 ng·h/mL
% Reduction in Tumor Volume [4]: −4.42%
% Reduction in Tumor Weight [4]: 11.03%

Compound: O=C(O)c1ccc(-c2ccc(/C=C3\OC(=S)N(Cc4ccccc4)C3=O)o2)cc1 [Compound 1, (Z)-4-(5-((3-Benzyl-4-oxo-2-thioxooxazolidin-5-ylidene)methyl)furan-2-yl)benzoic acid]
EC50 [1]: 250 to 1000 nM
fold more active in promoting adhesion than imidazolidine compound 4 ([2]; relative to compound 4): greater than 7 fold
fold more active in promoting adhesion than imidazolidine compound 5 ([2]; relative to compound 5): greater than 40 fold
Tmax [3, 13]: 2 h
half-life [3, 13]: 1.97 h
Vd [3, 13]: 1.5 L/kg
AUC(0-t) ([3]; Balb/C): 1060 ng·h/mL
bioavailability [3]: 18.6%
% Reduction in Tumor Volume [4]: −38.30%
% Reduction in Tumor Weight [4]: −37.15%

Compound: O=C(O)c1ccc(-c2ccc(/C=C3\SC(=S)N(Cc4ccccc4)C3=O)o2)cc1 [LA1, (Z)-4-(5-((3-benzyl-4-oxo-2-thioxothiazolidin-5-ylidene)methyl)furan-2-yl)benzoic acid]
recruitment of leukocytes [5]: reduce recruitment of leukocytes
neointimal thickening [6]: reduce neointimal thickening
hyperoxia-dependent lung injury [7]: reduce hyperoxia-dependent lung injury
liver fibrosis [8]: reduce liver fibrosis
renal ischemia/reperfusion injury [9]: reduce renal ischemia/reperfusion injury
allograft survival [10]: increase allograft survival
liver repair [11]: enhance liver repair
tumor growth and re-growth [12]: reduced tumor growth and re-growth

Further lines, results first:

EC50 [1]: 250 to 1000 nM
Tmax [3, 13]: 0.5 h
half-life [3, 13]: 0.77 h
Vd [3, 13]: 1.15 L/kg
AUC(0-t) ([3]; Balb/C): 357 ng·h/mL
bioavailability [3]: 4.1%
Compound: O=C1/C(=C/c2ccc(-c3ccc(-c4nnn[nH]4)cc3)o2)SC(=S)N1Cc1ccccc1 [Compound 42, (Z)-5-((5-(4-(1H-tetrazol-5-yl)phenyl)furan-2-yl)methylene)-3-benzyl-2-thioxothiazolidin-4-one]

EC50 [1]: 100 to 250 nM
Compound: O=C(O)c1ccc(-c2ccc(/C=C3\SC(=S)N(Cc4ccccc4)C3=O)s2)cc1 [Compound 25, (Z)-4-(5-((3-Benzyl-4-oxo-2-thioxothiazolidin-5-ylidene)methyl)thiophen-2-yl)benzoic acid]

EC50 [1]: 1000 to 10000 nM
Compound: O=C(O)c1ccc(-c2cccc(/C=C3\SC(=S)N(Cc4ccccc4)C3=O)n2)cc1 [Compound 18, (Z)-4-(6-((3-Benzyl-4-oxo-2-thioxothiazolidin-5-ylidene)methyl)pyridin-2-yl)benzoic acid]

EC50 [1]: 250 to 1000 nM
Compound: CC(C)c1ccc(CN2C(=O)/C(=C/c3ccc(-c4ccc(C(=O)O)cc4)o3)SC2=S)cc1 [Compound 39, (Z)-4-(5-((3-(4-Isopropylbenzyl)-4-oxo-2-thioxothiazolidin-5-ylidene)methyl)furan-2-yl)benzoic acid]

EC50 [1]: 250 to 1000 nM
Compound: Cc1ccccc1CN1C(=O)/C(=C/c2ccc(-c3ccc(C(=O)O)cc3)o2)SC1=S [Compound 26, (Z)-4-(5-((3-(2-Methylbenzyl)-4-oxo-2-thioxothiazolidin-5-ylidene)methyl)furan-2-yl)benzoic acid]

EC50 [1]: 1000 to 10000 nM
Compound: Cc1ccc(CN2C(=O)/C(=C/c3ccc(-c4ccc(C(=O)O)cc4)o3)SC2=S)c(C)c1 [Compound 37, (Z)-4-(5-((3-(2,4-Dimethylbenzyl)-4-oxo-2-thioxothiazolidin-5-ylidene)methyl)furan-2-yl)benzoic acid]
